How the values were obtained:
[1] = test system: Plasma; assay: Unbound clearance in mouse plasma at 3 mg/kg, iv; assay type: ADME, organism-based; conditions: in vivo
[2] = test system: Mus musculus; assay: Unbound AUC in mouse at 10 mg/kg, po; assay type: ADME, organism-based; conditions: in vivo
[3] = Half life in mouse at 3 mg/kg, iv; assay type: ADME, organism-based; conditions: in vivo
[4] = test system: Liver; assay: Unbound intrinsic clearance in mouse liver microsomes; assay type: ADME, microsome
[5] = biological target: Bromodomain adjacent to zinc finger domain protein 2A (Homo sapiens, UniProt Q9UIF9); assay: Inhibition of human BAZ2A (M1792 to L1905 residues) expressed in bacterial expression system by BROMOscan assay
Chain of Bromodomain adjacent to zinc finger domain protein 2A (Q9UIF9 whole entry, the tested form may be a part): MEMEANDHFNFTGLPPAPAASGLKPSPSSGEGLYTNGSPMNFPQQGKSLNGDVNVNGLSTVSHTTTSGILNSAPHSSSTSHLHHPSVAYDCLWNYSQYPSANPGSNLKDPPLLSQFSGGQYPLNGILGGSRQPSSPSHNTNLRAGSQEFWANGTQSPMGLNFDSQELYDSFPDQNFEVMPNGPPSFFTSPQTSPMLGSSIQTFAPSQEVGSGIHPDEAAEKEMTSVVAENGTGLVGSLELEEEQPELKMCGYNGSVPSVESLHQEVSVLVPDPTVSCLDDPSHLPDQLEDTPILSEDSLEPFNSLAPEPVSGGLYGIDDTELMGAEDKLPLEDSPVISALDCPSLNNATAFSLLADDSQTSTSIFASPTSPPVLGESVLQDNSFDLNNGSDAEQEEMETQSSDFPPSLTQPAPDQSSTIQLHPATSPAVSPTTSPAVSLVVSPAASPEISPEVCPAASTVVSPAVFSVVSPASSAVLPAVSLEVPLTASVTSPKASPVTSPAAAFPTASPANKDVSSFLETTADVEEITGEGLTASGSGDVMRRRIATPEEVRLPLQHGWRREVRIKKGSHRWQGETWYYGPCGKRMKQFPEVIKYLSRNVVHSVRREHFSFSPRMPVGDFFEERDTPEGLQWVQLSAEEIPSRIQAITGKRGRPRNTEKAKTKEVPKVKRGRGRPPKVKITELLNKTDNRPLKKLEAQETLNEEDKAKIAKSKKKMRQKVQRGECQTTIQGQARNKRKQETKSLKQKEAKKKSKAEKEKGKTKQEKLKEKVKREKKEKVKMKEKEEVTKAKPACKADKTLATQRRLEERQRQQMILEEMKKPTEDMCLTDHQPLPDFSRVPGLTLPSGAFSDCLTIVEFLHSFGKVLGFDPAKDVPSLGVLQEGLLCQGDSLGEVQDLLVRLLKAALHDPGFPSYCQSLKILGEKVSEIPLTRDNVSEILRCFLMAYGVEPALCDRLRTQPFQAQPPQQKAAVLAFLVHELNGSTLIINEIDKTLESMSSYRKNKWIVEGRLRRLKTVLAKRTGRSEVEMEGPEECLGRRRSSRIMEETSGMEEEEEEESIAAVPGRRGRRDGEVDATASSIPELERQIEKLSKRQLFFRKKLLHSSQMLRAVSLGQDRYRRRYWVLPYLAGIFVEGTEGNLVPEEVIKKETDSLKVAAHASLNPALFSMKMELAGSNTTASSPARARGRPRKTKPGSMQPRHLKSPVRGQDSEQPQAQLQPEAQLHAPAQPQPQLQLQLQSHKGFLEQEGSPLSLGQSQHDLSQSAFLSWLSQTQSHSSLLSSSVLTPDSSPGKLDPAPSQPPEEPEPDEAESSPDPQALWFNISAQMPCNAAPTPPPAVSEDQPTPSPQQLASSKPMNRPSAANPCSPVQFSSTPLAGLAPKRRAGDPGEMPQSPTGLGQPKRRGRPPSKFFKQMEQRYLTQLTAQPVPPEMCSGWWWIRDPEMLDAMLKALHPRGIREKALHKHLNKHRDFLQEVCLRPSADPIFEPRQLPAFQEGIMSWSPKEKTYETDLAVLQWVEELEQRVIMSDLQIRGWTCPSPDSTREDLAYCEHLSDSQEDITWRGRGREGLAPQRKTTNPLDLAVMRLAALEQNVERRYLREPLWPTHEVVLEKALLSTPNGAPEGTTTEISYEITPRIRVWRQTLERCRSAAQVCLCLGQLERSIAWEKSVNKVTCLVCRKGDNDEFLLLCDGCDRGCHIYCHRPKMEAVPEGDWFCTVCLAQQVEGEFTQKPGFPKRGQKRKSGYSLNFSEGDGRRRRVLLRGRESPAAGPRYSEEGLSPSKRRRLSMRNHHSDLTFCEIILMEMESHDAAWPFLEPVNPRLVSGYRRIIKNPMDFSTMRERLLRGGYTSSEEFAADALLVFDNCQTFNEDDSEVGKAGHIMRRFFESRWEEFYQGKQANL

[6] = biological target: T1, Peregrin (Homo sapiens) (UniProt P55201); assay: Inhibition of human BRPF1 (E627 to G740 residues) expressed in bacterial expression system at 1 uM by BROMOscan assay
T1 sequence (whole entry): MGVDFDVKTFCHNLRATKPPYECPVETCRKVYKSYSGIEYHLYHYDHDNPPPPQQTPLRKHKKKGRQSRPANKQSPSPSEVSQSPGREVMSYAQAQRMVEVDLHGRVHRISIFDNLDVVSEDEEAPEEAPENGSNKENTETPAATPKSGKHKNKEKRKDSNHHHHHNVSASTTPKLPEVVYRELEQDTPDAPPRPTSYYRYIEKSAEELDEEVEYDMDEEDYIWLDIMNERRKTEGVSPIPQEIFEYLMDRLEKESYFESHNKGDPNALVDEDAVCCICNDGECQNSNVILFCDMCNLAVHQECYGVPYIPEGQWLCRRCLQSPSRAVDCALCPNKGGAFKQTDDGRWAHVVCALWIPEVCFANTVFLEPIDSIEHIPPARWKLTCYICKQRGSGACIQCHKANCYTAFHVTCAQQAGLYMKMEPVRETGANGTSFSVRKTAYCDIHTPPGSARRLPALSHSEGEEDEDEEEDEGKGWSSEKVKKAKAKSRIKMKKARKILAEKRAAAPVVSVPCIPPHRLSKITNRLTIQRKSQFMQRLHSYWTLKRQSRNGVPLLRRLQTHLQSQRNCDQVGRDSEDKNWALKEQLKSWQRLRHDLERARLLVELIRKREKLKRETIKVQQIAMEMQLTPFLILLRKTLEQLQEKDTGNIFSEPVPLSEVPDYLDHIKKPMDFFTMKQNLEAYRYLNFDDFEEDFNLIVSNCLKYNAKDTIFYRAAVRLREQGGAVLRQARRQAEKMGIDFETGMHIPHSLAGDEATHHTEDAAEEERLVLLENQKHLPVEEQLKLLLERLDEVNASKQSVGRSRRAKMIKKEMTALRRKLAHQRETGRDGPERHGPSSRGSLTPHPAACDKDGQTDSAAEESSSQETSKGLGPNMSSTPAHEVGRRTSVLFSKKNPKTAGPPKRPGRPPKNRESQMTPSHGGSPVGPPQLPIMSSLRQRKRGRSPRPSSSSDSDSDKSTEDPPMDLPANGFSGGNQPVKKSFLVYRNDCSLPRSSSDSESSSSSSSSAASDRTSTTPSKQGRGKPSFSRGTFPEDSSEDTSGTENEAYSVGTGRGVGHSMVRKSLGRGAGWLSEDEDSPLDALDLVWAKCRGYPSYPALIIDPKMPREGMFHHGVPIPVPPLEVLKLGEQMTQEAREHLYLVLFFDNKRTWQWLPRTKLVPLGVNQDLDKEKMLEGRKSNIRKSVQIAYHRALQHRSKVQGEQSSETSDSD

[7] = biological target: T2, Bromodomain and PHD finger-containing protein 3 (Homo sapiens, UniProt Q9ULD4); assay: Inhibition of human BRPF3 (E588 to G701 residues) expressed in bacterial expression system by BROMOscan assay
T2 sequence (Q9ULD4 whole entry): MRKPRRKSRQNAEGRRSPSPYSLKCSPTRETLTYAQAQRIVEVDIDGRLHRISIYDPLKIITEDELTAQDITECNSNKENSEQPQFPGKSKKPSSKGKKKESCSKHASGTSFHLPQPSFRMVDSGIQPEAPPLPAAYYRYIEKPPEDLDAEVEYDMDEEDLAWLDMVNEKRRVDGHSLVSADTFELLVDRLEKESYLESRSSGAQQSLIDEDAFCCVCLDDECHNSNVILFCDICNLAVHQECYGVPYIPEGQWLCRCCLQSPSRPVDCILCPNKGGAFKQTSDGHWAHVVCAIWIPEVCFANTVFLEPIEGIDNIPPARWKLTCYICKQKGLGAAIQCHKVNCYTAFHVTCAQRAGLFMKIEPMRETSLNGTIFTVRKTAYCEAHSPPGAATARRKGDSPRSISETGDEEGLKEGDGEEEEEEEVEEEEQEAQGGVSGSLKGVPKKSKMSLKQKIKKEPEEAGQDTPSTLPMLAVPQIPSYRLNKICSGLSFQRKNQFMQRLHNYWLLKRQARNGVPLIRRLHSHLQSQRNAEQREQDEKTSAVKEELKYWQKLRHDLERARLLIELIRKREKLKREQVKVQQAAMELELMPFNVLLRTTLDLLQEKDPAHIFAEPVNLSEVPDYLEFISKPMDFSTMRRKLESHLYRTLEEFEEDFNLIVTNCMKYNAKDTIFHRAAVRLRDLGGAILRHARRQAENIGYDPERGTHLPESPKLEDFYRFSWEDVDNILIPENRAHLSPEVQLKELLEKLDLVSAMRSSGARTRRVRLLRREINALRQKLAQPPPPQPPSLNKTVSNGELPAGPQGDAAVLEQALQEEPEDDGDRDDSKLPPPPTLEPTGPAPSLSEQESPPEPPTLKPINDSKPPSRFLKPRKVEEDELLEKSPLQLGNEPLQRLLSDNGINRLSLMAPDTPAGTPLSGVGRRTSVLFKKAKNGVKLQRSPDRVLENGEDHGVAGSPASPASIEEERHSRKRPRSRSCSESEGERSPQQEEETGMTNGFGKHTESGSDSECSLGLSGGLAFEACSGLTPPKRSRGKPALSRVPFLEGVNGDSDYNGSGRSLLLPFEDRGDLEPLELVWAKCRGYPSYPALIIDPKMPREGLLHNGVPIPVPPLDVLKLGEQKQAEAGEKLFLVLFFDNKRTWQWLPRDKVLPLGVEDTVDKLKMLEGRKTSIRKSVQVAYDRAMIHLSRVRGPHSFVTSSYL

[8] = biological target: Protein polybromo-1 (Homo sapiens, UniProt Q86U86); assay: Inhibition of human PBRM1 bromodomain 2 (S178 to E291 residues) expressed in bacterial expression system by BROMOscan assay
Chain of Protein polybromo-1 (Q86U86 whole entry, the tested form may be a part): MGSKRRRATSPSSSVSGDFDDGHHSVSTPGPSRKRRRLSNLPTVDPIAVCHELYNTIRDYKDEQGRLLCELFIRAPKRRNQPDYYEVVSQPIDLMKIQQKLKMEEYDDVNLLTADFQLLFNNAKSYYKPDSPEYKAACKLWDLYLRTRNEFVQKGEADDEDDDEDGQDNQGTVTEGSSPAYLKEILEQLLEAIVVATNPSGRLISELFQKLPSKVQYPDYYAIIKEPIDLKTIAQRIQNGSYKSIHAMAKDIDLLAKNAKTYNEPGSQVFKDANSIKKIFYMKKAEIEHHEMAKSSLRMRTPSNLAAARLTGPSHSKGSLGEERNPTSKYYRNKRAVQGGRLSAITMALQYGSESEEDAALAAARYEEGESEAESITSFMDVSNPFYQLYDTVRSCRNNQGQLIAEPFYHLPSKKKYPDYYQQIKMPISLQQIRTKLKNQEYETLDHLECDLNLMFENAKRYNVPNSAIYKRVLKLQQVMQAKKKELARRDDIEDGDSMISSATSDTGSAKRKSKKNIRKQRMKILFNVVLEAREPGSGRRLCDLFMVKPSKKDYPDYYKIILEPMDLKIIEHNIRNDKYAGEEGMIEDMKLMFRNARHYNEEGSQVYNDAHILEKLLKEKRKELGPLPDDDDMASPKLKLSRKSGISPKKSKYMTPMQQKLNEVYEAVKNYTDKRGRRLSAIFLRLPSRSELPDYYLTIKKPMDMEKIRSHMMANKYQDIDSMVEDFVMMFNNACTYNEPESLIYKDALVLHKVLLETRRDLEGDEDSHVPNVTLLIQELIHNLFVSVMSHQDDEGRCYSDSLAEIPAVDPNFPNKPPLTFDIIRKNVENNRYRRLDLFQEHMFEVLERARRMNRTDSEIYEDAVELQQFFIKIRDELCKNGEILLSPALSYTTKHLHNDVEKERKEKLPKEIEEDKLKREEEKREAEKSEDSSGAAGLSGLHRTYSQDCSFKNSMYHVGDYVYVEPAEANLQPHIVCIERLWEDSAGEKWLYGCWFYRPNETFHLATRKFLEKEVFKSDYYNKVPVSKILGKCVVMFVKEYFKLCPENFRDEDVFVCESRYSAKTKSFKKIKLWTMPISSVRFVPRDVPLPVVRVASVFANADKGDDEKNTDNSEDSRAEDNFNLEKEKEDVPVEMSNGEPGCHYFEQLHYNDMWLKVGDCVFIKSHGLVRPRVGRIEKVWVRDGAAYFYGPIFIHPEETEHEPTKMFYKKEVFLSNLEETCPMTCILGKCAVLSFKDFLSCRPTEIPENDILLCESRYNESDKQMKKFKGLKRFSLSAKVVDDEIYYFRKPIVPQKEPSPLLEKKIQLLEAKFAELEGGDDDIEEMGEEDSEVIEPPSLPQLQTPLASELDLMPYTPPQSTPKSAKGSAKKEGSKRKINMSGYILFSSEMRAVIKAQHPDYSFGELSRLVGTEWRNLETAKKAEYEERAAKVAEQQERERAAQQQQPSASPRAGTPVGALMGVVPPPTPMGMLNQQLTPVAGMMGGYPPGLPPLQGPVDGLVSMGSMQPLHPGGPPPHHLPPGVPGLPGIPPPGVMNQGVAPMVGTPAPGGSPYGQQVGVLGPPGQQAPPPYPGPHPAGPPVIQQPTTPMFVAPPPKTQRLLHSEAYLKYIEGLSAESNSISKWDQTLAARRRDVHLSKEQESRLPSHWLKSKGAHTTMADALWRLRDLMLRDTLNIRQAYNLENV

[9] = biological target: Bromodomain-containing protein 2 (Homo sapiens, UniProt P25440); assay: Binding affinity to BRD2 BD1-BD2 (G73 to A560 residues) (unknown origin) after 1 hr by Alexa-647-conjugated probe based TR-FRET assay
Chain of Bromodomain-containing protein 2 (P25440 whole entry, the tested form may be a part): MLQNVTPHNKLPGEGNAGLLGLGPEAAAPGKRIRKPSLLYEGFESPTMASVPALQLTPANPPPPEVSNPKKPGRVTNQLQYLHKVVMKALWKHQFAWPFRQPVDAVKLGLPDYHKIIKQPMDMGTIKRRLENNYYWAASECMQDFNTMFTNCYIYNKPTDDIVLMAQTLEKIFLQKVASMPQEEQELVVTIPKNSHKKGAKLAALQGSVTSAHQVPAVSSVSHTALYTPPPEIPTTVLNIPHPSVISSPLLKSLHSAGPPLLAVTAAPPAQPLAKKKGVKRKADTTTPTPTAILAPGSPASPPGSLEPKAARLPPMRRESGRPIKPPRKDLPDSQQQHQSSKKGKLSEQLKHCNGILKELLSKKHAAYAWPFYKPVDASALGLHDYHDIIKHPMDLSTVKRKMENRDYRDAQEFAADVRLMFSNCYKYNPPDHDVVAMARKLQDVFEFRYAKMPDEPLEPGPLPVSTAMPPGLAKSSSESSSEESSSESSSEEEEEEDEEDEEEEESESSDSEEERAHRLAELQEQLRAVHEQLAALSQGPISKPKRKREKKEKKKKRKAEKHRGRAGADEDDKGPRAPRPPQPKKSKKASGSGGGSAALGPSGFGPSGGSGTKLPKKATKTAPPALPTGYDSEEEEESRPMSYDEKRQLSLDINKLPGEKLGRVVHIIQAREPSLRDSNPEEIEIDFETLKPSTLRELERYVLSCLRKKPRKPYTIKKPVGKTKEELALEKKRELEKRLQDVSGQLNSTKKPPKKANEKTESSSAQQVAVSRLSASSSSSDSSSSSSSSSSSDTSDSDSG

For `Cn1cc(-c2cc(S(C)(=O)=O)ccc2Oc2ccc(F)cc2F)c2cc[nH]c(=O)c21`, the CL free [1] was 267 mL/min/kg, the fAUC [2] was 0.86 µM·h and the half-life [3] was 2.5 h. For the same compound, the CL free [4] was 200 mL/min/kg, the IC50 [5] was 10 µM and the inhibition [6] was 83%. For the same compound, the IC50 [7] was over 10 µM, the IC50 [8] was over 10 µM and the Ki [9] was 0.16 µM.

`Cc1[nH]c(-c2cc(NS(C)(=O)=O)ccc2Oc2ccccc2)c2c1C(=O)CCC2` gave a CL free [1] of 1400 mL/min/kg, a fAUC [2] of 0.09 µM·h and a half-life [3] of 0.6 h. It also gave a CL free [4] of 917 mL/min/kg, an IC50 [5] of 10 µM and an inhibition [6] of 100%. For the same compound, the IC50 [7] was over 10 µM, the IC50 [8] was over 10 µM and the Ki [9] was 0.014 µM.

In the case of `Cc1[nH]c(-c2cc(S(C)(=O)=O)ccc2Oc2ccc(F)cc2F)c2c1C(=O)NCC2`, the CL free [1] is reported as 233 mL/min/kg, the fAUC [2] is reported as 0.53 µM·h and the half-life [3] is reported as 1.3 h. For the same compound, the CL free [4] was under 115 mL/min/kg, the IC50 [5] was over 10 µM and the inhibition [6] was 98.6%. The IC50 [7] was over 10 µM, the IC50 [8] was over 10 µM and the Ki [9] was 0.027 µM.
